Measurements taken from BindingDB's records for doi:10.1073/pnas.89.8.3630 (Synaptic Pharmaceutical, 1992).

Columns and labels:
[1] = target: 5-hydroxytryptamine receptor 1D (Homo sapiens, UniProt P28221)
[2] = target: 5-hydroxytryptamine receptor 1B (Homo sapiens, UniProt P28222)
Sequence of 5-hydroxytryptamine receptor 1B (P28222 whole entry): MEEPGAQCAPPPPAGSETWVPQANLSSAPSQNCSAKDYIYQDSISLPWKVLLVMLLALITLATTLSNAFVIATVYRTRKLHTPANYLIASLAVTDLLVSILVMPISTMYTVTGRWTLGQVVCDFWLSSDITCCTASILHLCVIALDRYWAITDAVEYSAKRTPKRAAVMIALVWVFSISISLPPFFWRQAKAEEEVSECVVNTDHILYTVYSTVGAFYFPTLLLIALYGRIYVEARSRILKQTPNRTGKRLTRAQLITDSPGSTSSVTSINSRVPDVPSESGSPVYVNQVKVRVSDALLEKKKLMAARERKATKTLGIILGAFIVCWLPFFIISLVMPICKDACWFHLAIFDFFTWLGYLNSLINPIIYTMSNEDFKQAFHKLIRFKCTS

Sequence of 5-hydroxytryptamine receptor 1D (P28221 whole entry): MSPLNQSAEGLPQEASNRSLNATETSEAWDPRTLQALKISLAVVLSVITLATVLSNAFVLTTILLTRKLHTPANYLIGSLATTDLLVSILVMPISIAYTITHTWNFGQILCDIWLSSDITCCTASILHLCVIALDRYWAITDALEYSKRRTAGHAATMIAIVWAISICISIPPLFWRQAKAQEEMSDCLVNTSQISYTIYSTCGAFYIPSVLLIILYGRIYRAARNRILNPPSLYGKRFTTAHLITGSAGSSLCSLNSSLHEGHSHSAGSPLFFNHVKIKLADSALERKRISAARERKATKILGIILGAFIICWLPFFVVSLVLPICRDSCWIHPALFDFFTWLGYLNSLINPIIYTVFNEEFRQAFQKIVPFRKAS

**Q.** For `c1ccc2nc(N3CCNCC3)ccc2c1` [2-Piperazin-1-yl-quinoline (Quipazine)], which Ki [1] is on record?
**A.** 1000 nM

**Q.** What about the Ki [2] of the same compound?
**A.** 1000 nM

**Q.** How did the Ki [1] turn out when `CC(C)NCC(O)COc1cccc2[nH]ccc12` (centres undefined) [LB-46] was run?
**A.** 4900 nM

**Q.** What about the Ki [2] of the same compound?
**A.** 4100 nM

**Q.** What does the source list for `Cc1[nH]c2ccc(O)cc2c1CCN`?
**A.** Ki [1]: 860 nM; Ki [2]: 915 nM

**Q.** How did the Ki [1] turn out when `CCCN(CCC)CCc1c[nH]c2ccc(C(N)=O)cc12` [NN-DIPROP-5-CT] was run?
**A.** 42 nM

**Q.** And the Ki [2]?
**A.** 13 nM

**Q.** Which Ki [1] does the source give for `O=C(CCCN1CCC2(CC1)C(=O)NCN2c1ccccc1)c1ccc(F)cc1` [8-[4-(4-fluorophenyl)-4-oxidanylidene-butyl]-1-phenyl-1,3,8-triazaspiro[4.5]decan-4-one] here?
**A.** > 10000 nM

**Q.** And the Ki [2]?
**A.** 995 nM

**Q.** For `CC[C@@H](CO)NC(=O)[C@@H]1C=C2c3cccc4c3c(cn4C)C[C@H]2N(C)C1`, which Ki [1] is on record?
**A.** 25 nM

**Q.** What about the Ki [2] of the same compound?
**A.** 3.6 nM

**Q.** For `c1ccc2c(N3CCNCC3)cccc2c1`, which Ki [1] is on record?
**A.** 12 nM

**Q.** For `CN1C[C@H](CO)C=C2c3cccc4[nH]cc(c34)C[C@H]21`, which Ki [1] is on record?
**A.** 1.19 nM

**Q.** And the Ki [2]?
**A.** 0.63 nM

**Q.** Which Ki [1] does the source give for `Clc1cccc(N2CCNCC2)c1` [mCPP] here?
**A.** 361 nM

**Q.** And the Ki [2]?
**A.** 216 nM

**Q.** For `COc1cc(N)c(Cl)cc1C(=O)NC1CN2CCC1CC2` (centres undefined) [ZACOPRIDE,R], which Ki [1] is on record?
**A.** > 10000 nM

**Q.** What about the Ki [2] of the same compound?
**A.** > 10000 nM
